Laboratory results as given in US5908824A, “Nasally administrable compositions containing physiologically active peptides” (Dott Research Laboratory, priority 1995, dated 1999).

System: blood sugar
Assay: Test Example 1: average fall of the blood sugar in rabbits after insulin
Assay type: in vivo, New Zealand rabbits
Settings: subcutaneous 2 IU/rabbit, level at 0 min = 100%
Protocol: The composition contained insulin at […] (5 insulin units (IU)/rabbit).
The composition was nasally administered to six male New Zealand rabbits at one time, and the average fall of the blood sugar was measured at 0, 15, 30, 60, 120 and 180 min after administration.
For comparison, 2 IU/rabbit of insulin was subcutaneously injected to six male New Zealand rabbits and the average fall of the blood sugar was measured at 0, 60, 120, 240, and 360 min after administration.
The results are shown in Table 1, in which the average fall of the blood sugar is indicated in percentage assuming the blood sugar level at 0 min to be 100%.

insulin [Control]
Blood sugar level (% of 0-min level) (0 min after administration): 100%
Blood sugar level (% of 0-min level) (60 min after administration): 57%
Blood sugar level (% of 0-min level) (120 min after administration): 56%
Blood sugar level (% of 0-min level) (240 min after administration): 84%
Blood sugar level (% of 0-min level) (360 min after administration): 94%
